According to publication PMC6036174 (Frontiers in Microbiology, 2018):
Where two headings read alike, the source gives them in different places.

What was measured:
[1] = tested on: A549 lung epithelial cells; test: A549 cell cytotoxicity (MTT); details: 48 h incubation, MTT, called CC50 in methods; for IC50: read-out: Cytotoxicity IC50 A549 cells
[2] = tested on: VERO (ATCC CCL-81) normal epithelial cells; test: VERO cell cytotoxicity (resazurin); details: 24 h incubation, called CC50 in methods; for IC50: read-out: Cytotoxicity IC50 VERO cells
[3] = tested on: M. tuberculosis H37Rv (ATCC 27294); test: resazurin microtiter assay, MIC against M. tuberculosis H37Rv; assay type: cell-based, Mycobacterium tuberculosis; details: 7 days 37°C, 90% inhibition of growth
M. tuberculosis CDC1551 = test: broth tube MIC (visible pellet) against M. tuberculosis CDC1551; assay type: cell-based, Mycobacterium tuberculosis; details: for MIC100 / MIC / fold increase in potency compared to INH: M. tuberculosis CDC1551; for MIC100 / MIC: 14 days 37°C, no visible pellet; for MIC: read-out: MIC100
G. mellonella larvae = test: in vivo toxicity in Galleria mellonella larvae; details: for % Mortality: 72 h post-injection; for In vivo G. mellonella tolerance order in μmol / In vivo G. mellonella tolerance order in μmol (Normalized against no. of phens): rank; for In vivo G. mellonella tolerance order in μmol: 1st = best tolerated, from Table 2; for In vivo G. mellonella tolerance order in μmol (Normalized against no. of phens): normalized with respect to phen content
Protocol: G. mellonella larvae in the 6th developmental stage were used to determine the in vivo cytotoxicity of the test complexes (Kellett et al., [2011]; Desbois and Coote, [2012]; McCann et al., [2012]). Thirty healthy larvae, each weighing between 0.2 and 0.4 g and with no cuticle discolouration, were used for each experiment. Fresh solutions of the test complexes were prepared immediately prior to testing under sterile conditions. Test compounds (0.05 g) were dissolved in DMSO (1 mL) and added to sterile water (9 mL) to give a stock solution/suspension (5,000 μg/mL). Test solutions/suspensions were prepared from the corresponding stock solution using Millipore water only to dilute to the desired concentration and each compound was screened across the concentration range of 5,000–100 mg/L. Test solutions/suspensions (20 μL) were administered to the larvae by injection directly into the haemocoel through the last pro-leg. The base of the pro-leg can be opened by applying gentle pressure to the sides of the larvae and this aperture will re-seal after removal of the syringe without leaving a scar. Larvae were placed in sterile Petri dishes and incubated at 30°C for 72 h. The survival of the larvae was monitored every 24 h. Death was assessed by the lack of movement in response to stimulus together with discolouration of the cuticle. Three controls were employed in all assays. The first consisted of untouched larvae maintained at the same temperature as the test larvae. The second was larvae with the pro-leg pierced with an inoculation needle but no solution injected. The third control was larvae that were inoculated with 20 μL of sterile water.

[4] = solubility in water (descriptive); assay type: physicochemical
[5] = 40 μg per larvae (133.33 mg/kg)
[6] = 100 μg per larvae (333.33 mg/kg)

Compound	Cytotoxicity IC50 A549 cells [1] [µg/mL]	Cytotoxicity IC50 VERO cells [2] [µg/mL]	IC50 [1] [µM]	IC50 [2] [µM]	MIC90 [3] [µg/mL]	MIC90 ([3]; read-out: MIC90) [µM]	MIC100 (M. tuberculosis CDC1551) [µg/mL]	MIC (M. tuberculosis CDC1551) [µM]	% Mortality (G. mellonella larvae; 10 μg per larvae (33.33 mg/kg)) [%]	% Mortality (G. mellonella larvae; 20 μg per larvae (66.67 mg/kg)) [%]	% Mortality (G. mellonella larvae; [5]) [%]	% Mortality (G. mellonella larvae; [6]) [%]	In vivo G. mellonella tolerance order in μmol (G. mellonella larvae)	In vivo G. mellonella tolerance order in μmol (Normalized against no. of phens) (G. mellonella larvae)	solubility in water [4]	fold increase in potency compared to INH (M. tuberculosis CDC1551) [fold]	fold increase in inhibitory activity against CDC1551 relative to H37Rv (M. tuberculosis CDC1551; MIC CDC1551 vs H37Rv) [fold]
O.O.[Cl-].[Cl-].[Mn+2] [MnCl2·2H2O, reference compound]	153.4	92.1	–	–	–	–	–	–	–	–	–	–	–	–	–	–	–
[Cl-].[Cl-].[Mn+2] [MnCl2·2H2O, reference compound]	–	–	947	569	–	–	–	–	–	–	–	–	–	–	–	–	–
O.O.O=C([O-])c1ccccc1C(=O)[O-].[Mn+2].c1cnc2c(c1)ccc1cccnc12 [compound 5, [Mn(ph)(phen)(H2O)2]]	234.51	15.6	539	35.8	0.57	1.31	< 0.19	< 0.44	0	80	90	90	6th	6th	water-insoluble	–	–
O.O.O.O.O.O=C([O-])c1ccccc1C(=O)[O-].[Mn+2].c1cnc2c(c1)ccc1cccnc12.c1cnc2c(c1)ccc1cccnc12 [compound 6, [Mn(ph)(phen)2(H2O)]·4H2O]	259.34	11.7	387	17.5	1.42	2.12	0.38	0.57	0	80	90	90	7th	5th	water-insoluble	–	–
O.O.O.O.O=C([O-])c1cccc(C(=O)[O-])c1.O=C([O-])c1cccc(C(=O)[O-])c1.[Mn+2].[Mn+2].c1cnc2c(c1)ccc1cccnc12.c1cnc2c(c1)ccc1cccnc12.c1cnc2c(c1)ccc1cccnc12 [compound 7, [Mn2(isoph)2(phen)3]·4H2O]	255.87	125	244	119	1.56	1.48	–	–	0	60	80	90	4th	3rd	water-insoluble	–	–
O.O.O.O.O.O.O.O.O.O.O.O.O.O.O.O.O=C([O-])c1cccc(C(=O)[O-])c1.O=C([O-])c1cccc(C(=O)[O-])c1.[Mn+2].[Mn+2].c1cnc2c(c1)ccc1cccnc12.c1cnc2c(c1)ccc1cccnc12.c1cnc2c(c1)ccc1cccnc12.c1cnc2c(c1)ccc1cccnc12.c1cnc2c(c1)ccc1cccnc12 [compound 8, {[Mn(phen)2(H2O)2]}2(isoph)2(phen)·12H2O]	251.76	46.9	155	28.8	3.01	1.85	–	–	0	80	90	90	9th	5th	water-insoluble	~3	–
O.O.O.O.O.O=C([O-])c1ccc(C(=O)[O-])cc1.[Mn+2].c1cnc2c(c1)ccc1cccnc12.c1cnc2c(c1)ccc1cccnc12 [compound 9, [Mn(tereph)(phen)2]·5H2O]	251.94	46.9	376	70	3.41	5.09	0.38	0.57	0	80	90	90	7th	5th	water-insoluble	–	–
[Cu2(oda)(phen)4](ClO4)2·2.76H2O·EtOH [compound 2]	0.98	11.7	–	8.94	16.60	12.68	1.50	1.15	0	50	90	90	3rd	2nd	water-soluble	–	–
[Mn2(oda)(phen)4(H2O)2][Mn2(oda)(phen)4(oda)2]·4H2O [compound 1]	> 512	375	> 208	153	1.15	0.47	–	–	0	40	90	90	1st	1st	water-soluble	~3	3
{[Cu(3,6,9-tdda)(phen)2]·3H2O·EtOH}n [compound 4]	1.06	5.85	1.42	7.86	10.03	13.48	0.75	1.01	0	80	90	90	8th	6th	water-soluble	–	–
